Results published in US20040253576A1 (priority 2003, published 2004).
“Also recorded” adds a separate entry of the source. Like-named read-outs stand apart in the source and are kept apart here.

Tests used:
MSNs from the NAcb shell [1] = assay type: cell-based, Sprague-Dawley rats; conditions: for effect on DA-mediated changes in spike firing / effect on spike firing, intracellular perfusion alone: 1 μM, intracellular perfusion; for effect on increase in spike firing elicited by D1/D2 co-activation: dialysis of neurons; for effect on activation of spike firing by forskolin: peptide in intracellular solution
[2] = system: total potassium currents, comprised of IAs, delayed-rectifier, and non-inactivating potassium currents; experiment: voltage-clamp measurement of total evoked potassium current; assay type: cell-based, Sprague-Dawley rats
MSNs from the NAcb shell [3] = system: MSNs from the NAcb shell
Experimental: Patch-clamping was performed using visualized infrared-DIC with 2.5 to 3.5 MΩ electrodes. Current pulses were applied using Clampex 8.0 and an Axo-1D patch amplifier in current-clamp mode (Axon Instruments, Foster City, Calif.). Upon breaking into neurons, the resting membrane potentials were between −95 and −80 mV. […] Series resistance correction was 15-20 MΩ. To record EPSPs, a bipolar stimulating electrode was placed ˜100 μM lateral to the recording electrode. Afferents were stimulated with 10 pulses at 20 Hz (20 μs) every 30 seconds using a Master 8 (AMPI, Jerusalem, Israel), and EPSPs were recorded using Clampex in current-clamp mode.
We also performed a within-cell comparison of the spike firing change and the change in input resistance or Vm-rest.

Molecule: Nc1ccncc1 [4-AP, 4-aminopyridine]
- effect on DA-mediated enhancement of spike firing (occlusion) (MSNs from the NAcb shell [1]; 60 μM pre-exposure): significantly occluded the effects of DA
- effect on spike firing (MSNs from the NAcb shell [1]; 5-60 μM): increased spike firing in a dose-dependent manner; also recorded: significantly enhanced spike firing
- change in spike firing with DA after pre-exposure to IAs inhibitor (MSNs from the NAcb shell [1]; inhibitor 10 μM): 11.4+/−5.1%
- effect on potassium current evoked by a 300 ms pulse to 0 mV ([2]; 10 μM): small but significant inhibition

Molecule: NCCc1ccc(O)c(O)c1 [DA, Dopamine]
- effect on input resistance (R-input) (MSNs from the NAcb shell [3]): no significant changes
- effect on resting membrane potential (Vm-rest) (MSNs from the NAcb shell [3]): no significant changes
- effect on spike firing (MSNs from the NAcb shell [1]): significantly and reversibly elevated spike firing
- enhancement in spike firing by DA with calcium channels blocked (MSNs from the NAcb shell [1]; pre-incubation with ω-conotoxin GVIA 500 nM and ω-agatoxin IVA 250 nM, continuous nifedipine 30 μM): 24.0+/−5.0%
- effect on potassium current evoked by a 300 ms pulse to 0 mV ([2]; 75 μM): small but significant inhibition

Molecule: CCCN1CCc2cccc3c2[C@H]1Cc1ccc(O)c(O)c1-3 [NPA, propylnorapomorphine]
- effect on spike firing, agonist alone (MSNs from the NAcb shell [1]; 3 μM, alone): not altered

Molecule: Nc1ncnc2c1ncn2[C@@H]1O[C@@H]2CO[P@@](O)(=S)O[C@H]2[C@H]1O [Rp-cAMPS]
- effect on spike firing when added during the DA response (MSNs from the NAcb shell [1]; 100 μM, during plateau DA response): significantly reduced spike firing to pre-DA levels

Molecule: CN1CCc2cc(Cl)c(O)cc2[C@@H](c2ccccc2)C1 [SCH 23990]
- change in spike firing with DA after pre-exposure to antagonist (MSNs from the NAcb shell [1]; antagonist 1 μM, pre-exposure): −0.5+/−4.6%

Molecule: Oc1cc2c(c(Cl)c1O)CCNCC2c1ccccc1 (stereo not shown) [SKF 81297]
- effect on spike firing in cells perfused with Gβγ (MSNs from the NAcb shell [1]; 10 μM, intracellular Gβγ subunits 20 nM): significantly enhanced spike firing
- effect on spike firing, agonist alone (MSNs from the NAcb shell [1]; 1-10 μM, alone): not altered
- change in spike firing in neurons perfused with Gβγ vehicle plus maltose binding protein (MSNs from the NAcb shell [1]; control perfusion without Gβγ): −2.5+/−2.5%

Molecule: CC(N)Cc1ccccc1 (stereo not shown) [amphetamine]
- change in spike firing (MSNs from the NAcb shell [1]; 10 μM, bath application): 18.5+/−5.4%

Molecule: C=C[C@@]1(C)CC(=O)[C@@H]2[C@@]3(C)CCCC(C)(C)[C@@H]3[C@H](O)[C@H](OC(C)=O)[C@@]2(C)O1 [dideoxy-forskolin]
- effect on spike firing (MSNs from the NAcb shell [1]; 5 μM): had no effect

Molecule: CCc1cc(Cl)c(OC)c(C(=O)NC[C@@H]2CCCN2CC)c1O [eticlopride]
- change in spike firing with DA after pre-exposure to antagonist (MSNs from the NAcb shell [1]; antagonist 300 nM, pre-exposure): 2.5+/−5.5%
- effect on DA-mediated enhancement of spike firing (MSNs from the NAcb shell [1]; antagonist 3 μM, pre-exposure): prevented

Molecule: N[C@@H](CCC(=O)O)C(=O)O [glutamate]
- effect on spike rate after exposure to 60 μM 4-AP (MSNs from the NAcb shell [1]; 200 μM, after 60 μM 4-AP): further increased spike rate

Molecule: C=C1[C@@H](O)[C@@H]2O[C@]3(CC[C@H](/C=C/[C@@H](C)[C@@H]4CC(C)=C[C@@]5(O[C@H](C[C@@](C)(O)C(=O)O)CC[C@H]5O)O4)O3)CC[C@H]2O[C@@H]1[C@@H](O)C[C@H](C)[C@H]1O[C@@]2(CCCCO2)CC[C@H]1C [okadaic acid]
- effect on DA-mediated changes in spike firing (MSNs from the NAcb shell [1]): occluded
- effect on spike firing, intracellular perfusion alone (MSNs from the NAcb shell [1]): significantly enhanced
- firing change with okadaic acid in the presence of 4-AP (MSNs from the NAcb shell [1]; ˜13 minutes pre-exposure to 60 μM 4-AP): 16+/−4.3%

Molecule: CCCN1CCC[C@@H]2Cc3n[nH]cc3C[C@H]21 [quinpirole]
- effect on spike firing in cells perfused with Gβγ (MSNs from the NAcb shell [1]): not
- effect on spike firing, agonist alone (MSNs from the NAcb shell [1]): not altered
- effect on spike rate, agonist alone (MSNs from the NAcb shell [1]): no effect

Molecule: DALRIQMEERFMASNPSKVSYEPIT [SPβγ]
- effect on increase in spike firing elicited by D1/D2 co-activation (MSNs from the NAcb shell [1]; 200 μM): prevented
- effect on activation of spike firing by forskolin (MSNs from the NAcb shell [1]): not prevented

Molecule: Norokadaone
- effect on DA-mediated changes in spike firing (MSNs from the NAcb shell [1]): did not prevent the effects of DA
- effect on spike firing, intracellular perfusion alone (MSNs from the NAcb shell [1]): had no effect by itself

Molecule: YEDSYEDISAYLLSKNNAIPR [FVIII]
- effect on increase in spike firing elicited by D1/D2 co-activation (MSNs from the NAcb shell [1]; 200 μM): had no effect
- effect on activation of spike firing by forskolin (MSNs from the NAcb shell [1]): not prevented

Molecule: α-dendrotoxin (QPRRKLCILHRNPGRCYDKIPAFYYNQKKKQCERFDWSGCGGNSNRFKTIEECRRTCIG; UniProt P00980 1-59, looked up) [α-dtx]
- effect on spike firing (MSNs from the NAcb shell [1]; 0.5 μM): significantly enhanced spike firing
- effect on DA-mediated enhancement of spike firing (occlusion) (MSNs from the NAcb shell [1]; 0.5 μM pre-exposure): significantly occluded the effects of DA
